Experimental data as given in article PMC10329973 (Clinical pharmacology in drug development, 2023).

Experiments:
[1] = Single ascending dose study NP10679-101, plasma pharmacokinetics; assay type: in vivo, human; details: for half-life: healthy volunteers, SAD and MAD studies overall; for Vd: SAD
[2] = Multiple ascending dose study NP10679-102, plasma pharmacokinetics; assay type: in vivo; details: human, iv; for Cmax / Tmax: MAD; for half-life: T 1/2, MAD
[3] = mouse; cited from earlier work
[4] = 25 mg, 25 mg IV once daily, day 1
[5] = 25 mg, 25 mg IV once daily, day 2
[6] = 25 mg, 25 mg IV once daily, day 3
[7] = 25 mg, 25 mg IV once daily, day 4
[8] = 25 mg, 25 mg IV once daily, day 5
[9] = 50 mg, 50 mg IV once daily, day 1
[10] = 50 mg, 50 mg IV once daily, day 2
[11] = 50 mg, 50 mg IV once daily, day 3
[12] = 50 mg, 50 mg IV once daily, day 4
[13] = 50 mg, 50 mg IV once daily, day 5
[14] = 100 mg, 100 mg IV once daily, day 1
[15] = 100 mg, 100 mg IV once daily, day 2
[16] = 100 mg, 100 mg IV once daily, day 3
[17] = 100 mg, 100 mg IV once daily, day 4
[18] = 100 mg, 100 mg IV once daily, day 5

O=C1CCc2cc(OC[C@H](O)CN3CCN(c4ccc(C(F)(F)F)cc4)CC3)ccc2N1 [NP10679, (R)-6-(2-Hydroxy-3-(4-(4-(trifluoromethyl)phenyl)piperazin-1-yl)propoxy)-3,4-dihydroquinolin-2(1H)-one]
half-life [1]: ~ 20 h
clearance ([1]; human, plasma, intravenous): 163 to 200 mL/min
half-life ([1]; human, plasma, intravenous, half-life): 20 h
Vd ([1]; human, plasma, intravenous, volume of distribution): > 221 L
AUC(0-inf) ([1]; human, plasma, iv, 5 mg): 553 ± 204 ng·h/mL
AUC(0-t) ([1]; human, plasma, iv, 5 mg): 335 ± 46 ng·h/mL
Cmax ([1]; human, plasma, iv, 5 mg): 27 ± 15 ng/mL
clearance ([1]; human, plasma, iv, 5 mg): 163 mL/min
Vd ([1]; human, plasma, iv, 5 mg, VSS, single IV infusion 5 mg, mean ± SD): 435 ± 178 L
Vd ([1]; human, plasma, iv, 5 mg, Vd, area, mean, single IV infusion 5 mg): 396 L
AUC(0-inf) ([1]; human, plasma, iv, 15 mg): 1280 ± 227 ng·h/mL
AUC(0-t) ([1]; human, plasma, iv, 15 mg): 1140 ± 233 ng·h/mL
Cmax ([1]; human, plasma, iv, 15 mg): 99 ± 67 ng/mL
clearance ([1]; human, plasma, iv, 15 mg): 200 mL/min
Vd ([1]; human, plasma, iv, 15 mg, VSS, single IV infusion 15 mg, mean ± SD): 306 ± 41 L
Vd ([1]; human, plasma, iv, 15 mg, Vd, area, mean, single IV infusion 15 mg): 346 L
AUC(0-inf) ([1]; human, plasma, iv, 50 mg): 4680 ± 797 ng·h/mL
AUC(0-t) ([1]; human, plasma, iv, 50 mg): 3980 ± 544 ng·h/mL
Cmax ([1]; human, plasma, iv, 50 mg): 415 ± 107 ng/mL
clearance ([1]; human, plasma, iv, 50 mg): 183 mL/min
Vd ([1]; human, plasma, iv, 50 mg, VSS, single IV infusion 50 mg, mean ± SD): 255 ± 20 L
Vd ([1]; human, plasma, iv, 50 mg, Vd, area, mean, single IV infusion 50 mg): 286 L
AUC(0-inf) ([1]; human, plasma, iv, 100 mg): 9860 ± 3220 ng·h/mL
AUC(0-t) ([1]; human, plasma, iv, 100 mg): 9370 ± 3090 ng·h/mL
Cmax ([1]; human, plasma, iv, 100 mg): 746 ± 223 ng/mL
clearance ([1]; human, plasma, iv, 100 mg): 183 mL/min
Vd ([1]; human, plasma, iv, 100 mg, VSS, single IV infusion 100 mg, mean ± SD): 259 ± 57 L
Vd ([1]; human, plasma, iv, 100 mg, Vd, area, mean, single IV infusion 100 mg): 317 L
AUC(0-inf) ([1]; human, plasma, iv, 150 mg): 13900 ± 1280 ng·h/mL
AUC(0-t) ([1]; human, plasma, iv, 150 mg): 13600 ± 1220 ng·h/mL
Cmax ([1]; human, plasma, iv, 150 mg): 954 ± 370 ng/mL
clearance ([1]; human, plasma, iv, 150 mg): 183 mL/min
Vd ([1]; human, plasma, iv, 150 mg, VSS, single IV infusion 150 mg, mean ± SD): 250 ± 23 L
Vd ([1]; human, plasma, iv, 150 mg, Vd, area, mean, single IV infusion 150 mg): 286 L
AUC(0-inf) ([1]; human, plasma, iv, 200 mg): 20200 ± 4600 ng·h/mL
AUC(0-t) ([1]; human, plasma, iv, 200 mg): 19700 ± 4370 ng·h/mL
Cmax ([1]; human, plasma, iv, 200 mg): 2070 ± 798 ng/mL
clearance ([1]; human, plasma, iv, 200 mg): 167 mL/min
Vd ([1]; human, plasma, iv, 200 mg, VSS, single IV infusion 200 mg, mean ± SD): 221 ± 34 L
Vd ([1]; human, plasma, iv, 200 mg, Vd, area, mean, single IV infusion 200 mg): 245 L
AUC(0-t) ([2]; 25 mg, AUC 0–24, MAD, 25 mg IV once daily, day 1): 1470 ± 186 ng·h/mL
AUC(0-t) ([2]; 25 mg, AUC 0–24, MAD, 25 mg IV once daily, day 2): 1920 ± 305 ng·h/mL
AUC(0-t) ([2]; 25 mg, AUC 0–24, MAD, 25 mg IV once daily, day 3): 2090 ± 303 ng·h/mL
AUC(0-t) ([2]; 25 mg, AUC 0–24, MAD, 25 mg IV once daily, day 4): 2170 ± 397 ng·h/mL
AUC(0-t) ([2]; 25 mg, AUC 0–24, MAD, 25 mg IV once daily, day 5): 2260 ± 478 ng·h/mL
AUC(0-t) ([2]; 25 mg, AUC 0–96, MAD, 25 mg IV once daily, day 5): 3880 ± 1140 ng·h/mL
Cmax [2, 4]: 208 ± 72 ng/mL
Cmax [2, 5]: 211 ± 57 ng/mL
Cmax [2, 6]: 207 ± 35 ng/mL
Cmax [2, 7]: 250 ± 34 ng/mL
Cmax [2, 8]: 213 ± 26 ng/mL
half-life [2, 4]: 15 ± 3 h
half-life [2, 5]: 17 ± 2 h
half-life [2, 6]: 16 ± 3 h
half-life [2, 7]: 19 ± 5 h
half-life [2, 8]: 36 ± 15 h
Tmax [2, 4]: 0.5 h
Tmax [2, 5]: 0.9 ± 0.8 h
Tmax [2, 6]: 0.8 ± 0.4 h
Tmax [2, 7]: 0.5 h
Tmax [2, 8]: 0.5 h
AUC(0-t) ([2]; 50 mg, AUC 0–24, MAD, 50 mg IV once daily, day 1): 2650 ± 283 ng·h/mL
AUC(0-t) ([2]; 50 mg, AUC 0–24, MAD, 50 mg IV once daily, day 2): 3300 ± 479 ng·h/mL
AUC(0-t) ([2]; 50 mg, AUC 0–24, MAD, 50 mg IV once daily, day 3): 3890 ± 424 ng·h/mL
AUC(0-t) ([2]; 50 mg, AUC 0–24, MAD, 50 mg IV once daily, day 4): 4110 ± 485 ng·h/mL
AUC(0-t) ([2]; 50 mg, AUC 0–24, MAD, 50 mg IV once daily, day 5): 4290 ± 500 ng·h/mL
AUC(0-t) ([2]; 50 mg, AUC 0–96, MAD, 50 mg IV once daily, day 5): 6960 ± 1170 ng·h/mL
Cmax [2, 9]: 376 ± 99 ng/mL
Cmax [2, 10]: 276 ± 60 ng/mL
Cmax [2, 11]: 335 ± 73 ng/mL
Cmax [2, 12]: 389 ± 116 ng/mL
Cmax [2, 13]: 394 ± 72 ng/mL
half-life [2, 9]: 18 ± 4 h
half-life [2, 10]: 18 ± 3 h
half-life [2, 11]: 26 ± 16 h
half-life [2, 12]: 16 ± 1 h
half-life [2, 13]: 21 ± 3 h
Tmax [2, 9]: 0.8 ± 0.8 h
Tmax [2, 10]: 1 ± 0.4 h
Tmax [2, 11]: 0.8 ± 0.5 h
Tmax [2, 12]: 0.8 ± 0.5 h
Tmax [2, 13]: 0.7 ± 0.4 h
AUC(0-t) ([2]; 100 mg, AUC 0–24, MAD, 100 mg IV once daily, day 1): 5630 ± 625 ng·h/mL
AUC(0-t) ([2]; 100 mg, AUC 0–24, MAD, 100 mg IV once daily, day 2): 7320 ± 279 ng·h/mL
AUC(0-t) ([2]; 100 mg, AUC 0–24, MAD, 100 mg IV once daily, day 3): 8710 ± 458 ng·h/mL
AUC(0-t) ([2]; 100 mg, AUC 0–24, MAD, 100 mg IV once daily, day 4): 9510 ± 1200 ng·h/mL
AUC(0-t) ([2]; 100 mg, AUC 0–24, MAD, 100 mg IV once daily, day 5): 8980 ± 376 ng·h/mL
AUC(0-t) ([2]; 100 mg, AUC 0–96, MAD, 100 mg IV once daily, day 5): 13900 ± 962 ng·h/mL
Cmax [2, 14]: 1240 ± 1150 ng/mL
Cmax [2, 15]: 570 ± 29 ng/mL
Cmax [2, 16]: 812 ± 190 ng/mL
Cmax [2, 17]: 873 ± 236 ng/mL
Cmax [2, 18]: 1080 ± 295 ng/mL
half-life [2, 14]: 22 ± 5 h
half-life [2, 15]: 22 ± 5 h
half-life [2, 16]: 22 ± 5 h
half-life [2, 17]: 34 ± 28 h
half-life [2, 18]: 13 ± 5 h
Tmax [2, 14]: 0.5 h
Tmax [2, 15]: 0.8 ± 0.3 h
Tmax [2, 16]: 0.5 h
Tmax [2, 17]: 0.6 ± 0.3 h
Tmax [2, 18]: 0.5 h
oral availability F% [3]: 76%
